This note sets out measurements from patent US20240109893A1, “PREPARATION AND APPLICATION METHOD OF HETEROCYCLIC COMPOUNDS AS KRAS INHIBITOR” (SHANGHAI KECHOW PHARMA, INC., priority 2020, published 2024).

A word on the bioavailability: it is the share of a dose that reaches the circulation, judged against a reference dose that is usually intravenous. Usually IC50 stands for the concentration that inhibits the measured activity by half.

Data set [1] in a line: Pharmacokinetic experiment in SD rats. The data set is classed as in vivo. As to conditions: male, Sprague-Dawley, rat, plasma, po, 10 mg/kg; read-out: Oral bioavailability, F %. The procedure: Pharmacokinetic Experiment in SD Rats:
1. SPF male rats were randomly divided into groups. The compounds to be tested were separately administered by intravenous injection and oral gavage, with 3 animals for each compound to be tested in each mode of administration. The administration solvent was 5% DMSO+10% Solutol+85% normal saline or 85% PBS, and the substances to be tested were dissolved in the solvent to obtain clear solutions. Administration concentration and volume: 1) a single intravenous injection of 0.6 mg/mL of the compound to be tested, with an administration volume of 5 mL/kg and an administration dosage of 3 mg/kg; and 2) a single oral gavage of 1 mg/mL of the compound to be tested, with an administration volume of 10 mL/kg and an administration dosage of 10 mg/kg. The rats were fasted overnight (10-14 h) before administration and fed 4 h after administration.
2. Blood was collected via the jugular vein or by other appropriate methods at 200 μL per time point and anticoagulated with K2-EDTA, and after collection, the blood was placed on ice and centrifuged for plasma within 1 h (centrifugation conditions: 6800 g, 6 min 2-8° C.). The points for blood sampling from the animals in the intravenous injection group were respectively: before administration, and 5 min, 15 min, 30 min, 1 h, 2 h, 4 h, 8 h, and 24 h after administration; and the points for blood sampling from the animals in the oral administration group were respectively: before administration, and 15 min, 30 min, 1 h, 2 h, 4 h, 6 h, 8 h, and 24 h after administration.
3. The blood concentration was detected, and the pharmacokinetic parameter AUC(0-t) was calculated by Phoenix WinNonlin based on the blood concentration data at various time points. When the pharmacokinetic parameters were calculated, the BLQ before Cmax (including ‘No peak’) was calculated as 0: and BLQ after Cmax (including ‘No peak’) was not involved in the calculation.

The next data set deals with KRAS G12C-GDP (Homo sapiens (Human), UniProt P01116, G12C). Description: KRAS G12C-GDP exchange test (SOS/cRAF/GTP, HTRF). The data set is classed as biochemical. As to conditions: 1 h premix with compound, 2 h reaction with SOS, cRAF, GTP. On the procedure:
2. A mixture of SOS (Pharmaron, ZZY-20190823), cRAF (Pharmaron, ZZY-20190823), GTP (Sigma, A6885-100MG), MAb Anti 6HIS-d2/MAb Anti GST-Eu (Cisbio, 61HISDLB/61GSTKLB) was added for a catalyzed reaction for 2 h.
3. The fluorescence signals of the emitted light at 615 nm and 665 nm under 320 nm excitation light were read by Biotek Microplate Reader (Synergy4).
4. The IC50 (median inhibitory concentration) of the compound was obtained by the following non-linear fitting formula: Y=Bottom+(Top−Bottom)/(1+10^((Log IC50−X)*Hill Slope)), and the data were analyzed by Graphpad 6-0 software.
(TR-FRET usually uses a lanthanide donor and a delayed reading to cut background.)

The test system of a further data set is H358 cells. Description: Cell activity experiment: activity test of H358 cells (MTT, 5 days). It is filed as cell-based. As to conditions: 5 days incubation, absorbance 492 nm. The procedure, abridged:
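H358 cells seeded 90 μL at 55555 cells/mL, grown 24 h, then exposed to 3-fold serial compound dilutions (final top 10000 nM, 0.5% DMSO) in triplicate for 5 days at 37° C., 5% CO2. Viability by MTT (4 h), formazan dissolved in DMSO, absorbance at 492 nm.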

KRAS G12C-GDP, sequence (P01116-2 other isoform, or with tags, fused parts or gaps G12C): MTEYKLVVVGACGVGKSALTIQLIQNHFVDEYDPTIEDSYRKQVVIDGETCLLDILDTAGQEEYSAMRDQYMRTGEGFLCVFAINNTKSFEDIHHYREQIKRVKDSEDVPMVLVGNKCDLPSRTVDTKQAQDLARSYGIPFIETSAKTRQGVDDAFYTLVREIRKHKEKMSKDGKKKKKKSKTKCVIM

For the compound `C=C(F)C(=O)N1CCN(c2nc(OC[C@@]34CCCN3C[C@H](F)C4)nc3c(F)c(-c4cccc5c4CC4CC54)ccc23)C[C@@H]1CC#N` (single isomer, unassigned) [Example 887], in data set [1], the bioavailability is 25.9%. For the same compound, the figures for the IC50 at KRAS G12C-GDP and in the data set with H358 cells were 1020 pM and 2650 pM, respectively.

Consider `C=CC(=O)N1CCN(c2nc(OC[C@@H]3CCCN3C)nc3c(F)c(-c4cccc5cccc(Cl)c45)ccc23)C[C@@H]1CC#N` [Example 358, 2-((S)-1-acryloyl-4-(7-(8-chloronaphthalen-1-yl)-8-fluoro-2-(((S)-1-methylpyrrolidin-2-yl)methoxy)quinazolin-4-yl)piperazin-2-yl)acetonitrile], for which the bioavailability in data set [1] amounted to 2.35%. For the same compound, the IC50 came out at 2400 pM on KRAS G12C-GDP and 3400 pM in the data set on H358 cells (Homo sapiens, NCI-H358, 120 h).

In the case of `C=C(F)C(=O)N1CCN(c2nc(OC[C@@H]3CCCN3C)nc3c(F)c(-c4cccc5cccc(Cl)c45)ccc23)C[C@@H]1CC#N` [Example 903], the bioavailability in data set [1] worked out at 28.6%. Besides, the IC50 at KRAS G12C-GDP stood at 890 pM; in the data set with H358 cells (Homo sapiens, NCI-H358, 120 h) it was 700 pM.

With `C=C(F)C(=O)N1CCN(c2nc(OC[C@@]34CCCN3C[C@H](F)C4)nc3c(F)c(-c4cccc5cccc(Cl)c45)ccc23)C[C@@H]1CC#N` [Example 904, 2-((S)-4-(7-(8-chloronaphthalen-1-yl)-8-fluoro-2-((2R,7aS)-2-fluorotetrahydro-1H-pyrrolizin-7a(5H)-methoxy)quinazolin-4-yl)-1-(2-fluoroacryloyl)piperazin-2-yl)acetonitrile], the bioavailability in data set [1] was determined as 30.3%. Further, the IC50 on KRAS G12C-GDP was found to be 930 pM; in the data set with H358 cells (Homo sapiens, NCI-H358, 120 h) it was 400 pM.
